As a reminder, the melting point is the temperature, or range, at which the solid turns liquid.

Bounds are passed on as bounds.

Our source for the melting point values is a melting point compilation (Tetko et al.; mined from patent text by program, amines drawn as free bases though some values may be those of a salt).

Molecule `CN1C(=O)CC[C@]2(C)c3ccc(CCc4ccccc4)cc3CC[C@@H]12` returned a melting point of 109 to 111 °C. In turn, `CSc1onc(-c2ccccc2)c1-c1ccc(S(N)(=O)=O)cc1` displayed a melting point of 135 to 137 °C. `CC(C)C1(C)Cc2cc(OCC(=O)O)c(Cl)c(Cl)c2C1=O` (centres undefined) registered a melting point of 148 °C. Take `O=c1[nH]c2c(n(O)c1=O)C1=C(CCC(n3ccc(CN4CCN(C(c5ccccc5)c5ccccc5)CC4)c3)=C1)CC2`: the melting point is greater than 200 °C.

Molecule `Cn1cc(C=O)c2c3sc4ccccc4c3ccc21` showed a melting point of 224 °C. Molecule `CCOC(=O)COc1ccc2cc(-c3cc4ccccc4s3)ccc2c1Br` had a melting point of 178 to 181 °C. Turning to `NC(=O)c1nnn(Cc2ccc(C(Cl)=C(Cl)Cl)cc2)c1N`, the melting point was 200 to 203 °C. Then `CCOC(=O)CC[C@H](NC(=O)c1ccc(I)cc1)C(=O)OCC`, with 105 to 106 °C; and `COc1cc(CON=C(CCC(=O)O)c2ccccc2)ccc1OCc1nc(-c2ccccc2)oc1C`, with 134 to 135 °C; and `O=C(NCC1CC1)c1cc2nccnc2c(Cl)c1NC(=O)c1cc(C(F)(F)F)nn1-c1ncccc1Cl`, with 180 to 183 °C. In turn, `CC(=O)OCCCCn1c(=O)sc2c(=O)[nH]c(N)nc21` had a melting point of 189 to 190 °C. The molecule `CCCN1NC(c2ccccc2)C2=C1C(=Cc1ccccc1)CSC2` (centres undefined) gave a melting point of 106 to 118 °C. Then `CC(C)Oc1c(-c2ccc(S(C)(=O)=O)cc2)cnn(-c2cc(F)ccc2F)c1=O`, with 161 to 164 °C; and `COc1ccc(-c2nc(-c3cccn3CC(=O)OC(C)C(C)C)sc2-c2ccc(OC)cc2)cc1` (centres undefined), with 88.5 to 91.5 °C. `COC(=O)C1=CCC(=C2CCc3nc4c(nc3C2=O)C(C)(C)CCC4(C)C)C=C1`: the melting point lay within 149 to 151 °C. For the molecule `COc1cc(NC(=O)N(Cc2ccccc2)C2CCCCC2)c(OC(C)=O)c(C(C)(C)C)c1`, the melting point fell in the range of 129 to 132 °C. For the molecule `CC1(C)OC(=C(C#N)C#N)C(C#N)=C1c1ccc(-c2cn(-c3ccccc3)nn2)cc1`, the melting point is 298 °C. On to `CC(C)Cn1c(CN2C(=O)c3ccccc3C2=O)c(-c2ccc(Cl)cc2)c2cc(OCc3ccccc3)ccc2c1=O`, for which the melting point lay within 182 to 183 °C. In the case of `CSc1ccc(-c2c(NN)nc(NN)nc2-c2ccccc2)cc1`, the melting point lay in the range of 207 to 210 °C. Regarding `CCOC(=O)c1[nH]c2cc(Cl)cc(Cl)c2c1NCS(=O)(=O)c1ccccc1`, the melting point lay in the range of 244 to 245 °C. For `CC(=O)NCCn1nnnc1S`, the melting point is 138 to 140 °C.

Take `CCCCCCCCCCCC#Cc1ccc(C=CC(=O)O)cc1`: the melting point is 156 to 157 °C. Then `CCCCCCCCCCCCCCCCn1c2cc(Br)ccc2c2ccc(Br)cc21`, with 85 to 86 °C; and `C[C@]1(F)C(=O)O[C@H](COC(=O)c2ccc(Cl)cc2)[C@H]1OC(=O)c1ccc(Cl)cc1`, with 138 to 141 °C; and `CCCCCC(CC(=O)Nc1cc(C(N)=O)ccc1C(C)(C)C)c1ccc(OCCOC)cc1OC` (centres undefined), with 134 to 135 °C. Molecule `COc1ccc(Cc2cc(-c3ccc(Cl)cc3)sc2Cc2ccc(OC)cc2)cc1` gave a melting point of 125 to 128 °C.

Take `Cc1cc(=O)n(-c2cc3[nH]c(=O)sc3cc2F)c(=O)n1C`: the melting point was greater than 250 °C.

For `CCc1nc2c(N)nc3ccccc3c2n1CC#Cc1cccc(C(F)(F)F)c1`, the melting point fell in the range of 202 to 204 °C. Then `CCCCCCCc1ccccc1C=CC(=O)c1ccc(OCC=C(C)C)cc1O`, with 65 to 67 °C; and `CC(C)c1csc(/C=C/c2cccc(NC(=O)Cc3ccccc3CC(=O)O)c2)n1`, with 144 to 146 °C; and `COC(=O)Cn1nnc(-c2ccc(C=Cc3ccc(-c4nc5ccccc5o4)cc3)cc2)c1C#N`, with 248 to 249 °C.

`COc1ccc(C(F)(F)C(F)(F)F)cc1C(C)=O` gave a melting point of 47 °C.

`C1=C(c2cc(-c3ccccc3)no2)CCN(Cc2c[nH]c3ncccc23)C1`: the melting point is 224 to 226 °C. `CC(C)C(=O)OC1C(n2ccc(=O)[nH]c2=O)OC(COC(=O)c2ccc(Cl)cc2)C1(C#C[Si](C)(C)C)OC(=O)C(C)C` (centres undefined) yielded a melting point of 160 to 161 °C. Molecule `CCOC(=O)C1=C(N)NC(N)=C(C(=O)OCC)C1c1ccccc1C(F)(F)F` showed a melting point of 191 °C. Molecule `O=C(CCl)Nc1ccc2[nH]ncc2c1` registered a melting point of 175 to 178 °C.

On to `NS(=O)(=O)c1cccc(NC(=O)Nc2c(F)c(F)c(F)c(F)c2F)c1`, for which the melting point was in the range of 224 to 227 °C. Then `CCCCOCCOc1ccc(-c2ccc3c(c2)C=C(C(=O)OC)CCN3c2ccccc2)cc1`, with 80 to 82 °C; and `O=C(Nc1ccc(Br)cc1)c1cc2ccccc2o1`, with 178 to 180 °C. Then `CCCCC(CNC(=O)Nc1c(C(C)C)cccc1C(C)C)c1cccc(C)c1` (centres undefined), with 173 to 174 °C; and `Cc1c(CC(=O)N[C@@H](CO[N+](=O)[O-])C(=O)O)cc(-c2ccc(S(C)(=O)=O)cc2)n1-c1ccc(F)cc1`, with 109 °C.

In the case of `N#Cc1nc(Cl)c(-c2c(F)cccc2Cl)c(Cl)c1Br`, the melting point stood at 90 °C. Then `COC(=O)[C@H]1C=C(c2ccc(Br)cc2)OC(=O)[C@H]1Cc1ccccc1`, with 139 to 141 °C; and `CCOC(=O)/C=C(\C)c1ccc(C2COc3c(C)c(C)c(NC(=O)CC(C)(C)C)c(C)c32)cc1` (centres undefined), with 179 to 180 °C; and `O=CN1CCC(c2nn(-c3ccc(C(F)(F)F)cc3)c3ccccc23)CC1`, with 109 to 111 °C. For the molecule `Cc1nc2c(C(=O)NC(C)(C(N)=O)C(C)C)cc(C(=O)O)cc2n1C` (centres undefined), the melting point is 246 to 248 °C. For the molecule `Cc1nc(NC(=O)NS(=O)(=O)c2ccccc2[N+](=O)[O-])nc2c1CCC2`, the melting point lay within 202 to 205 °C. Then `CCCN(CCC)C(=O)c1cc(C(=O)N[C@@H](Cc2cc(F)cc(F)c2)[C@H](O)CNCc2cc(CN(C)C)ccn2)cc(-c2ncco2)c1`, with 65 to 68 °C; and `CCCNc1cc(C(=O)OCC)cc(S(N)(=O)=O)c1Oc1ccccc1`, with 150 to 151 °C. Then `O=C(O)CSc1cc(=Nc2ccccc2)ss1`, with 147 °C; and `C=CC(C)OC(=O)c1c(C)nc2c(cnn2CCCCC)c1N` (centres undefined), with 64.6 to 67.2 °C; and `Cc1ccc(S(=O)(=O)N2[C@@H](CCc3nc(C4CC4)no3)CC[C@H]2c2ccc(F)cc2)cc1` (racemic), with 129 °C. Then `Cn1ncc(-c2ccc(O)cc2)cc1=O`, with 296 to 298 °C; and `OC(CNCCCCCCOCCCc1ccc(N2CCCCC2)cc1)c1ccc2c(n1)COC(c1ccccc1)O2` (centres undefined), with 75 to 76 °C.

Molecule `Cn1c(=O)nc(-c2ccccc2)c2cc([N+](=O)[O-])ccc21` had a melting point of 261 to 264 °C.

Consider `CCCC(CCC)C(=O)NCC(=O)NCCCCCCNC(=O)n1cc(F)c(=O)[nH]c1=O`, for which the melting point lay within 111 to 112 °C. `N#CC(C=O)=Cc1ccsc1` had a melting point of 123 to 124 °C.

Molecule `CCN1CCc2cc(OC)c(OC)cc2C1C1CC(C(=O)O)CCC12c1cc(OC)c(OC)cc1CCN2CC` (centres undefined) registered a melting point of 124 to 126 °C. Consider `CSc1nc(N)nc2c1ncn2C1C=CC(CO)C1` (centres undefined), for which the melting point lay within 152 to 154 °C. In turn, `CCOc1nc(NC(C)=O)nc2ccc(Cl)nc12` returned a melting point of 233 °C. Regarding `CC1(C)C(=O)N(c2ccc(C#N)c(C(F)(F)F)c2)C(=S)N1CCO`, the melting point was found to be 130 °C. `COc1ccc(C[C@@H](COC(C)=O)NC(=O)c2ccnc(-n3nc(-c4cccnc4)c4ccccc4c3=O)c2)cc1OC` gave a melting point of 85 to 87 °C. The molecule `CON1CCC2(CC1)NC(=O)C(c1c(C)cc(C#C[Si](C)(C)C)cc1C)=C2O` came in with a melting point greater than 240 °C. Then `O=C(Nc1cccc(C(F)(F)F)c1)c1ccccc1NCCc1ccncc1`, with 151 to 152 °C; and `Cc1cccc(C)c1NC(=O)NCC1(c2ccccc2)CCCC1`, with 201 to 202 °C; and `COc1cc(Nc2nccc(-c3sc(CO)nc3C)n2)ccc1N1CCOCC1`, with 180 to 181 °C. In turn, `CCCc1c(SC(=O)N(C)C)ccc(C(C)=O)c1OCCCC(=O)OCC` returned a melting point of 60 to 63 °C. Molecule `Cc1cccc(C(=O)n2nc(Nc3cccc(OCC(=O)NCCN4CCOCC4)c3)nc2N)c1` had a melting point of 145 to 147 °C. Then `Cc1ccc(S(=O)(=O)N2CCC(Sc3ccccc3)CC2)cc1`, with 105 to 108 °C; and `CCNC(=O)c1ccc(CN2CCN(c3ccncc3)CC2)cc1`, with 213 to 215 °C; and `COc1ccc(C(=O)N2CCN(c3cc4ccccc4cn3)CC2)cc1`, with 156 to 159 °C.

In the case of `C=C(C)CC(OS(C)(=O)=O)C(Cl)(Cl)Cl` (centres undefined), the melting point lay within 60 to 61 °C. `CCOC(=O)C1=NN(c2ccc(Cl)cc2)C2(N3CCCC3)CCCC12` (centres undefined): the melting point lay in the range of 95 to 96 °C. For the molecule `CCOP(=O)(Cc1nnc2c(=O)[nH]c3c4ccccc4ccc3n12)OCC`, the melting point was in the range of 195 to 197 °C. Then `COc1cc2c(cc1Cl)C(c1ccccc1Cl)C(=O)N2` (centres undefined), with 243 to 247 °C. In the case of `CCn1c(COC(=O)NC(=O)c2cc(Cl)cc(Cl)c2)nc(C(C)C)c1Sc1cc(Cl)cc(Cl)c1`, the melting point lay in the range of 124 to 125 °C. Then `Cc1nc(-c2ccccc2)n(-c2ccc(S(C)(=O)=O)cc2)n1`, with 118 to 119 °C; and `CS(=O)c1ccc(-c2nn(Cc3ccc(F)cc3F)c(=O)cc2-c2ccc(Cl)cc2)cc1` (centres undefined), with 156 °C; and `CC(C)c1ccc(N(Cc2ccc(N(C)C)cc2)C(=O)C2CCCc3ccccc32)cc1` (centres undefined), with 121 °C.

`CCCCn1c(=O)c2c(NC)n[nH]c2n(CCO)c1=O` returned a melting point of 248 to 253 °C. `CCCNC(=O)Nc1ccc(C(=O)c2c(C)c(OCCOC)c3ccccn23)cc1C(=O)OC` showed a melting point of 125 °C. Turning to `C[Si](C)(C)OCCCc1c[nH]c2ccccc12`, the melting point was in the range of 34 to 38 °C.

`CCCCOCCOc1ccc(-c2cc(/C=C(\C)C(=O)O)c3c(c2)CCCN3C)cc1` returned a melting point of 133 to 134 °C. Molecule `COc1ccc(-c2c(CO)c(C)nc3cc(OC)c(OC)cc23)cc1OC` displayed a melting point of 200 to 201 °C.
